# Source: US8796285B2, “Pyrazolo [1,5-a]-pyrimidones derivatives and pharmaceutical compositions and uses thereof” (Hebei Medical University, priority 2009, dated 2014)
# Where two headings read alike, the source gives them in different places.
# Key:
# [1] = tested on: rat; experiment: Amygdala kindling experiment; format: in vivo; details: vs pre-administration, p<0.01 vs control group
# Description: This experiment is used to measure the disease progress, when further stimulation is applied, the seizure level of the animal in this model will be increased as in the situation of normal animal.
# Pharmaceutical composition used: suspended solution of sodium carboxymethyl cellulose containing the compound number 21 for the testing group, suspended solution of sodium carboxymethyl cellulose for the positive control group, with concentration equal to the suspended solution of the testing group.
# Testing method: perform surgery to implant tri-polar electrode into dorsolateral amygdale of rat. After surgery, allow the animal to recover, then administer testing compound or pharmaceutical solvent agent of different dosages to rat of different groups. The animal is treated with electrical stimulation at a value which is +25 μA of the initial discharge threshold on a daily basis for 3-5 weeks, and record each seizure incidence in which the level of seizure, the duration of the seizure, and electrical duration after discharge are recorded (Racine. Electroencephalography and Clinical Neurophysiology 1972, 32, 281-294). Dosage level is the same as that of exemplary embodiment 11.
# [2] = target: KCNQ2/Q3 channel (Homo sapiens, UniProt O43525+O43526); experiment: Patch-clamp electrophysiology testing, CHO cell of KCNQ2/Q3 channel; format: cell-based; details: clamping voltage -80 mV, depolarized to -40 mV, FIG. 5a
# Description: (2) Testing method: Culture of ovary cell of Chinese hamster (CHO, Chinese Hamster Overy): steadily transfer the CHO cell culture of KCNQ2/Q3 channel into a composition containing 10% fetal bovine serum, 100 U/ml penicillin and DMEM culture solution of streptomycin, and allow digestion passage of trypsin. Spread the cell on a 12 mm round-shaped coverslip and culture on a 24-well cell culture plate.
# Record membrane current using patch-clamp technique: The patch-clamp amplifier is HEKA-EPC10. The electrode solution uses amphotericin B (final concentration of 0.1˜0.2 mg/ml) for perforated patch clamp recording. After polishing the microelectrodes, inject the electrode solution and control the to 2˜4MΩ. The electrode solution used for recording CHO cell are (mM): KCl 160, HEPES 5, MgCl2 3, CaCl2 1, EGTA 2, with pH adjusted to 7.4 with KOH; Extracellular electrode composition are (mM): NaCl 160, KCl 2.5, HEPES 10, glucose 8, MgCl2 1, CaCl2 5. After the cell membrane and microelectrodes form a high resistance seal, clamp at −80 mV, wait 5-10 min and record the readings according to different activation procedures.
# [3] = tested on: male mice; experiment: The maximum electric shock experiment; format: in vivo; details: Mus musculus, corneal electrode 26 mA 0.4 second, forced feeding 10, 25, 50 mg/kg, read-out: ED50 anticonvulsant effect
# Description: “The maximum electric shock” experiment: The experiment uses electrical method to measure non-specific CNS-induced seizures.
# Pharmaceutical composition used: the compound number 21 for the testing group, phenyloin for positive control group.
# Experimental method: Apply corneal electrode in male mice of each group, apply 26 mA square wave current for 0.4 second, and forced feeding the pharmaceutical composition after inducing convulsion which is characterized by hindlimb tonic extension (Wlaz et al., Epilepsy Research 1998, 30, 219-229). Dosages for the testing group are: 10 mg/kg (body weight) per administration, 25 mg/kg (body weight) per administration, and 50 mg/kg (body weight) per administration respectively. For control group, dosage is 25 mg/kg (body weight) per administration.
# [4] = target: T1, KCNQ2/3 (Homo sapiens, UniProt O43525+O43526); experiment: High throughput atomic absorption Rb+ efflux testing, KCNQ2/3; format: cell-based; details: Rb+ efflux by atomic absorption
# T1 construct: expressed in transfected cells
# [5] = target: KCNQ4 potassium ion channel (Homo sapiens, UniProt P56696); experiment: High throughput atomic absorption Rb+ efflux testing, CHO cell of KCNQ4 channel; format: cell-based; details: for EC50: CHO cell of KCNQ4 channel
# Description: Atomic absorption Rb^+ efflux testing is a fast and safe selection method for high throughput potassium channel moderator, and is characterized in that the activity of the ion channel and the control effect of the opener are directly reflected. Rb and K have similar atomic size, and potassium ion channel is permeable to Rb^+. By testing concentration of the Rb^+ efflux, a status of the potassium channel, which is an open status or a close status, can be determined. Rb has specific absorption at 780 nm, and Rb^+ concentration can be determined by atomic absorption spectroscopy. Accordingly, analysis method of atomic absorption spectroscopy can be used to select the opener/inhibitor of potassium channel through high throughput of Rb^+ efflux.
# Stable cell transfer of CHO cell of KCNQ4 channel at log phase and inoculate in 96-well culture plate at a density of 2×10^4 unit/well. Each concentration has a triplicate-hole setting, and a control setting with solvent of corresponding concentration. Allow growth against the well-wall overnight, then discard the culture medium, add 200 μl loading buffer which contains RbCl, and culture in 5% CO2 at 37° C. for 3 hours. Then remove the loading buffer and wash with wash buffer for 3 times. Screen for the KCNQ opener, dilute testing compound with depolarization buffer, add 200 μl of the above solvent into the cell and allow reaction for 10 minutes. Incubate for 10 minutes, then carefully draw 200 μl supernatant to another 96-well culture plate, use ICR8000 atomic absorption spectrometry to determine the Rb^+ atomic absorption at 780 nm. Based on the equation Fsupern=(Rb_supern/cpd/Rb_supern/d)×100, calculate the corresponding rate of efflux.
# [6] = tested on: male mice; experiment: Pilocarpine-induced seizures experiment; format: in vivo; details: Mus musculus, ip, pilocarpine 250 mg/kg i.p., compound by intraperitoneal injection 1, 5, 10 mg/kg, read-out: ED50 anti-epilepsy effect
# Procedure: Pilocarpine-induced seizure is, in general, difficult to treat by using the existing anti-epileptic drug, so it belongs to “drug-resistance epilepsy” model.
# Pharmaceutical composition used: the compound number 24 for the testing group, phenyloin for positive control group.
# Experimental method: Inject 250 mg/kg pilocarpine into the male mice of each group by intraperitoneal injection, induce pilocarpine-induced seizure, observe walking abnormality caused by seizures activities in 30 minutes (Starr et al, Pharmacology Biochemistry and Behavior 1993, 45, 321-325). Apply intraperitoneal injection. Dosages for the testing group are: 1 mg/kg (body weight) per administration, 5 mg/kg (body weight) per administration, and 10 mg/kg (body weight) per administration respectively. For control group, dosage is 50 mg/kg (body weight) per administration.
EC50 [4],"EC50 ([5]; Rb+ efflux by atomic absorption, read-out: KCNQ4)","activating effect on the CHO cell of the KCNQ4 potassium ion channel ([5]; Rb+ efflux at 0.03, 0.1, 0.6, 1, 3 and 10 μM, FIG. 4)","EC50 ([5]; Rb+ efflux, 0.03-10 μM, FIG. 4, read-out: EC50)",SMILES,seizure level [1],time period after discharge process of amygdala [1],activation of KCNQ2/3 channel current [2],ED50 [3],ED50 [6]
3610 ± 6020 nM,23.9 ± 0.43 µM,–,–,"O=c1cc(CCl)[nH]c2c(-c3ccccc3)c(C(F)(F)F)nn12 [Compound 21, 5-chloromethyl-3-phenyl-2-trifluoromethylpyrazolo[1,5-a]pyrimidin-7(4H)-one]",increased in the seizure level,shorten time period after discharge process of amygdale,can activate the KCNQ2/3 channel current significantly,12.2 ± 0.08 mg/kg,–
78 ± 20 nM,–,dose-dependent activating effect,0.21 ± 0.08 µM,O=c1cc(-c2cc(F)c(Cl)nc2Cl)[nH]c2c(-c3ccccc3)c(C(F)(F)F)nn12 [Compound 24],–,–,–,–,5.1 ± 0.05 mg/kg
